Reference: patent publication US8431563B2 (priority 2010, dated 2013)
Counter-ions that a name gives are not always drawn. Like-named read-outs stand apart in the source and are kept apart here.

Target: T1, interaction between glucokinase (GK) and glucokinase regulatory protein (GKRP) (Homo sapiens, UniProt Q14397)
T1 sequence (Q14397 1-625): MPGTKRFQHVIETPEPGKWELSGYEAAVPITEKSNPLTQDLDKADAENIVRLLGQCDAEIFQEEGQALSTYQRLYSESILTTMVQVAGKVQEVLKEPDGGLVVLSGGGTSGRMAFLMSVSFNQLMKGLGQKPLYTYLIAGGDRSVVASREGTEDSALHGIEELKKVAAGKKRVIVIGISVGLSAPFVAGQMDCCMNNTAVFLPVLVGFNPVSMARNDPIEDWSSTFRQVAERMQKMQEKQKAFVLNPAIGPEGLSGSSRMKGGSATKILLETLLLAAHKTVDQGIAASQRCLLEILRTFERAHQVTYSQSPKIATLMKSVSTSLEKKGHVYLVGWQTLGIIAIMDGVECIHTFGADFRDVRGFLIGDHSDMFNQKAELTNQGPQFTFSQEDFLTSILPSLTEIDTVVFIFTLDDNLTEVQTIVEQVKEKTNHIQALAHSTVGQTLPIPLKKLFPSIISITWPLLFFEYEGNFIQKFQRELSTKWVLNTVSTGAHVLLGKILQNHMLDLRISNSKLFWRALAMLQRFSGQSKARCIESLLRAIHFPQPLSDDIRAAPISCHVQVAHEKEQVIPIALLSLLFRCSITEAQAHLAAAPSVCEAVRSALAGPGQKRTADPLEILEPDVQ
Experiment: biochemical
Assay type: binding
Conditions: avi-tagged GKRP, GK-fluorescein, AlphaScreen beads
Description: GK-GKRP Binding Assay Protocol
This assay is used to directly measure the interaction between glucokinase (GK) and glucokinase regulatory protein (GKRP). Begin by preparing the following solutions. Assay Buffer: 20 mM Tris, pH 7.5/0.05% BSA/1 mM DTT/1 μM sorbitol-6-phosphate. […] Combine the following reagents in a white 96-well half area plate. Pipette 14 μl of the diluted avi-tagged GKRP into each well. Add 1 μl of compound to be tested and incubate at room temperature for 20 minutes. After 20 minutes, add 5 μl of assay buffer containing 6 nM GK-fluorescein. […] Incubate in a dark room for 2 hours at room temperature. After 2 hours read the plate using an Envision plate reader (Perkin Elmer, Waltham Mass.).

[1] = read-out: GK-GKRP IC50 (Binding)

| Compound | IC50 [1] | IC50 (GK-GKRP IC50 (Binding)) |
| --- | --- | --- |
| CC(O)(c1ccc(N2CCN(S(=O)(=O)c3cccs3)C[C@@H]2CN(C2CCC2)S(=O)(=O)c2cccnc2)cc1)C(F)(F)F (mixture of isomers) [Example 213, N-cyclobutyl-N-(((2R)-4-(2-thiophenylsulfonyl)-1-(4-(2,2,2-trifluoro-1-hydroxy-1-methylethyl)phenyl)-2-piperazinyl)methyl)-3-pyridinesulfonamide] | 928 nM |  |
| CC(O)(c1ccc(N2CCN(S(=O)(=O)c3cccs3)C[C@@H]2CN2CCNC(=O)C2)cc1)C(F)(F)F (mixture of isomers) [Example 179, 4-(((2S)-4-(2-thiophensulfonyl)-1-(4-(2,2,2-trifluoro-1-hydroxy-1-methylethyl)phenyl)-2-piperazinyl)methyl)-2-piperazinone] | 542 nM |  |
| CCC(O)C#Cc1cc(C(O)(C(F)(F)F)C(F)(F)F)ccc1N1CCN(S(=O)(=O)c2cccs2)CC1 (racemic) [Example 154, 1-(2-(4-(2-thiophenylsulfonyl)-1-piperazinyl)-5-(2,2,2-trifluoro-1-hydroxy-1-(trifluoromethyl)ethyl)phenyl)-1-pentyn-3-ol] | 1060 nM |  |
| CN(Cc1cn(C)cn1)C[C@H]1CN(S(=O)(=O)c2cccs2)CCN1c1ccc(C(C)(O)C(F)(F)F)cc1 (mixture of isomers) [Example 121, 1,1,1-trifluoro-2-(4-((2S)-2-((methyl((1-methyl-1H-imidazol-4-yl)methyl)amino)methyl)-4-(2-thiophenylsulfonyl)-1-piperazinyl)phenyl)-2-propanol] | 521 nM |  |
| CCC(O)C#Cc1cc(C(O)(C(F)(F)F)C(F)(F)F)ccc1N1CCC(S(=O)(=O)c2ccccc2)CC1 (racemic) [Example 162, 1-(2-(4-(phenylsulfonyl)-1-piperidinyl)-5-(2,2,2-trifluoro-1-hydroxy-1-(trifluoromethyl)ethyl)phenyl)-1-pentyn-3-ol] | 5180 nM |  |
| COc1ccc(CC2CN(S(=O)(=O)c3cccs3)CCN2c2ccc(C(O)(C(F)(F)F)C(F)(F)F)cc2)cc1 (racemic) [Example 175, 1,1,1,3,3,3-hexafluoro-2-(4-(2-(4-methoxybenzyl)-4-(thiophen-2-ylsulfonyl)piperazin-1-yl)phenyl)-2-propanol] | 2870 nM |  |
| CC(C)(C)OC(=O)NCC#Cc1cc(C(O)(C(F)(F)F)C(F)(F)F)ccc1N1CCN(S(=O)(=O)c2cccs2)CC1 [Example 158, tert-butyl (3-(2-(4-(2-thiophenylsulfonyl)-1-piperazinyl)-5-(2,2,2-trifluoro-1-hydroxy-1-(trifluoromethyl)ethyl)phenyl)-2-propyn-1-yl)carbamate] | 695 nM |  |
| O=S(=O)(c1cccs1)N1CCN(c2ccc(C(O)(C(F)(F)F)C(F)(F)F)cc2)C(Cc2ccc(O)cc2)C1 (racemic) [Example 177, 4-((1-(4-(1,1,1,3,3,3-hexafluoro-2-hydroxypropan-2-yl)phenyl)-4-(thiophen-2-ylsulfonyl)piperazin-2-yl)methyl)phenol] | 786 nM |  |
| C[C@H]1COCCN1C[C@H]1CN(S(=O)(=O)c2cccs2)CCN1c1ccc(C(O)(C(F)(F)F)C(F)(F)F)cc1 [Example 132, 1,1,1,3,3,3-hexafluoro-2-(4-((2S)-2-(((3S)-3-methyl-4-morpholinyl)methyl)-4-(2-thiophenylsulfonyl)-1-piperazinyl)phenyl)-2-propanol] | 6 nM |  |
| C[C@H]1CN(S(=O)(=O)c2cnc(N)s2)CCN1c1ncc(C(O)(C(F)(F)F)C(F)(F)F)cn1 [Example 147, 2-(2-((2S)-4-((2-amino-1,3-thiazol-5-yl)sulfonyl)-2-methyl-1-piperazinyl)-5-pyrimidinyl)-1,1,1,3,3,3-hexafluoro-2-propanol] | 998 nM |  |
| COc1cccc(CC2CN(S(=O)(=O)c3cccs3)CCN2c2ccc(C(O)(C(F)(F)F)C(F)(F)F)cc2)c1 (racemic) [Example 173, 1,1,1,3,3,3-hexafluoro-2-(4-(2-(3-methoxybenzyl)-4-(thiophen-2-ylsulfonyl)piperazin-1-yl)phenyl)-2-propanol] | 542 nM |  |
| CC(C)C(O)C#Cc1cc(C(O)(C(F)(F)F)C(F)(F)F)ccc1N1CCN(S(=O)(=O)c2cccs2)CC1 (racemic) [Example 156, 4-methyl-1-(2-(4-(2-thiophenylsulfonyl)-1-piperazinyl)-5-(2,2,2-trifluoro-1-hydroxy-1-(trifluoromethyl)ethyl)phenyl)-1-pentyn-3-ol] | 2860 nM |  |
| COC(C#Cc1cc(C(O)(C(F)(F)F)C(F)(F)F)ccc1N1CCN(S(=O)(=O)c2cccs2)CC1)C(C)C (racemic) [Example 157, 1,1,1,3,3,3-hexafluoro-2-(3-(3-methoxy-4-methyl-1-pentyn-1-yl)-4-(4-(2-thiophenylsulfonyl)-1-piperazinyl)phenyl)-2-propanol] | 658 nM |  |
| NCC#Cc1cc(C(O)(C(F)(F)F)C(F)(F)F)ccc1N1CCN(S(=O)(=O)c2cccs2)CC1 [Example 159, 2-(3-(3-amino-1-propyn-1-yl)-4-(4-(2-thiophenylsulfonyl)-1-piperazinyl)phenyl)-1,1,1,3,3,3-hexafluoro-2-propanol trifluoroacetate] |  | 1920 nM |
| CC(O)(c1ccc(N2CCN(S(=O)(=O)c3cccs3)C[C@@H]2CNC2CC2)cc1)C(F)(F)F (mixture of isomers) [Example 199, 2-(4-((2S)-2-((cyclopropylamino)methyl)-4-(2-thiophenylsulfonyl)-1-piperazinyl)phenyl)-1,1,1-trifluoro-2-propanol] |  | 713 nM |
| CC(c1ccccc1)N(C[C@H]1CN(S(=O)(=O)c2cccs2)CCN1c1ccc(C(C)(O)C(F)(F)F)cc1)S(C)(=O)=O (mixture of isomers) [Example 222, N-(1-phenylethyl)-N-(((2R)-4-(2-thiophenylsulfonyl)-1-(4-(2,2,2-trifluoro-1-hydroxy-1-methylethyl)phenyl)-2-piperazinyl)methyl)methanesulfonamide] | 671 nM |  |
| CC(O)(c1ccc(N2CCN(S(=O)(=O)c3cccs3)C[C@@H]2C[S+]([O-])c2cccc(F)c2)cc1)C(F)(F)F (single isomer, unassigned) [Example 189 Peak#3] | 535 nM |  |
| CC(O)(c1ccc(N2CCN(S(=O)(=O)c3cccs3)C[C@@H]2C[S+]([O-])c2cccc(F)c2)cc1)C(F)(F)F (single isomer, unassigned) [Example 189 Peak#2] | 717 nM |  |
